# Patent US20150272951A1, “COMPOUNDS FOR THE TREATMENT OF LYSOSOMAL STORAGE DISEASES” (The Hospital for Sick Children, priority 2010, published 2015)
# Biological target: mutant Hex A (Homo sapiens, UniProt P06865+P07686)
# Assay: not given
# Assay type: cell-based
# Conditions: Hex A rescue, determined from graphs of FIGS. 5-7
# Method: Using the graphs of FIGS. 5-7, the EC50 values for Hex A rescue were determined as well as the maximum increase and range of increase in Hex A activity. These values are tabulated in Table 2, together with the IC50 values for Hex A inhibition that were determined in Example 3.
row,SMILES,EC50 [µM]
1,CCc1nc(N)nc(N)c1-c1ccc(F)cc1 [ksh3-17],8.24
2,CCc1nc(N)nc(N)c1-c1cc(C)cc(C)c1 [ksh3-19e],16.4
3,CCCc1nc(N)nc(N)c1-c1ccc(C(F)(F)F)cc1 [zjm1-141],11.6
4,CCCc1nc(N)nc(N)c1-c1ccc(Cl)cc1 [zjm1-135],7.14
5,CCc1nc(N)nc(N)c1-c1ccc(C)cc1 [ksh3-19b],4.44
6,CCc1nc(N)nc(N)c1-c1ccc(C(F)(F)F)cc1 [jts16],5.14
7,CCc1nc(N)nc(N)c1-c1ccccc1 [ksh3-10],38.4
8,CCc1nc(N)nc(N)c1-c1ccsc1 [zjm7-69],10
9,CCCc1nc(N)nc(N)c1-c1cccc(C)c1 [ksh3.33d],14.8
10,CCCc1nc(N)nc(N)c1-c1ccc(OC)cc1 [zjm1-139],14.2
11,CCCc1nc(N)nc(N)c1-c1ccc(F)cc1 [ksh3-33a],12.5
12,CCc1nc(N)nc(N)c1-c1cccc(C)c1 [ksh3-19d],6.67
13,CCc1nc(N)nc(N)c1-c1ccccc1C [ksh3-19c],4.95
14,CCc1nc(N)nc(N)c1-c1cccs1 [zjm7-67],6.46
15,CCCc1nc(N)nc(N)c1-c1ccc(C)cc1 [zjm1-137],4.6
16,CCc1nc(N)nc(N)c1-c1ccc(C(F)(F)F)cc1 [vsa5],2.24
17,CCCc1nc(N)nc(N)c1-c1ccccc1 [ksh3-29],12.1

# Same assay, conditions: concentration of 100 μM (FIGS. 6 and 7)
row,SMILES,fold increase in Hex A activity (rescue of mutant Hex A) [fold]
1,CCc1nc(N)nc(N)c1-c1ccccc1 [ksh3-10],~3

# Same assay, conditions: maximum increase in Hex A activity relative to untreated cells (=1)
row,SMILES,Max Increase
1,CCc1nc(N)nc(N)c1-c1ccc(F)cc1 [ksh3-17],1.8
2,CCc1nc(N)nc(N)c1-c1cc(C)cc(C)c1 [ksh3-19e],2.2
3,CCCc1nc(N)nc(N)c1-c1ccc(C(F)(F)F)cc1 [zjm1-141],1.5
4,CCCc1nc(N)nc(N)c1-c1ccc(Cl)cc1 [zjm1-135],1.4
5,CCc1nc(N)nc(N)c1-c1ccc(C)cc1 [ksh3-19b],1.5
6,CCc1nc(N)nc(N)c1-c1ccc(C(F)(F)F)cc1 [jts16],1.3
7,CCc1nc(N)nc(N)c1-c1ccccc1 [ksh3-10],2.6
8,CCc1nc(N)nc(N)c1-c1ccsc1 [zjm7-69],1.9
9,CCCc1nc(N)nc(N)c1-c1cc(C)cc(C)c1 [ksh3.33e],1.6
10,CCCc1nc(N)nc(N)c1-c1cccc(C)c1 [ksh3.33d],1.7
11,CCCc1nc(N)nc(N)c1-c1ccc(OC)cc1 [zjm1-139],2.3
12,CCCc1nc(N)nc(N)c1-c1ccc(F)cc1 [ksh3-33a],1.4
13,CCc1nc(N)nc(N)c1-c1cccc(C)c1 [ksh3-19d],2.1
14,CCc1nc(N)nc(N)c1-c1ccccc1C [ksh3-19c],1.9
15,CCc1nc(N)nc(N)c1-c1cccs1 [zjm7-67],1.7
16,CCCc1nc(N)nc(N)c1-c1ccc(C)cc1 [zjm1-137],2.0
17,CCc1nc(N)nc(N)c1-c1ccc(C(F)(F)F)cc1 [vsa5],1.4
18,CCCc1nc(N)nc(N)c1-c1ccccc1 [ksh3-29],1.6
19,NCc1nc(N)nc(N)c1-c1ccc(Cl)cc1 [zjm7-27],1.4

# Same assay, conditions: range of increase in Hex A activity
row,SMILES,Range of Increase
1,CCc1nc(N)nc(N)c1-c1ccc(F)cc1 [ksh3-17],4
2,CCc1nc(N)nc(N)c1-c1cc(C)cc(C)c1 [ksh3-19e],3
3,CCCc1nc(N)nc(N)c1-c1ccc(C(F)(F)F)cc1 [zjm1-141],3
4,CCCc1nc(N)nc(N)c1-c1ccc(Cl)cc1 [zjm1-135],3
5,CCc1nc(N)nc(N)c1-c1ccc(C)cc1 [ksh3-19b],4
6,CCc1nc(N)nc(N)c1-c1ccc(C(F)(F)F)cc1 [jts16],4
7,CCc1nc(N)nc(N)c1-c1ccccc1 [ksh3-10],4
8,CCc1nc(N)nc(N)c1-c1ccsc1 [zjm7-69],4
9,CCCc1nc(N)nc(N)c1-c1cc(C)cc(C)c1 [ksh3.33e],1
10,CCCc1nc(N)nc(N)c1-c1cccc(C)c1 [ksh3.33d],3
11,CCCc1nc(N)nc(N)c1-c1ccc(OC)cc1 [zjm1-139],4
12,CCCc1nc(N)nc(N)c1-c1ccc(F)cc1 [ksh3-33a],4
13,CCc1nc(N)nc(N)c1-c1cccc(C)c1 [ksh3-19d],5
14,CCc1nc(N)nc(N)c1-c1ccccc1C [ksh3-19c],4
15,CCc1nc(N)nc(N)c1-c1cccs1 [zjm7-67],2
16,CCCc1nc(N)nc(N)c1-c1ccc(C)cc1 [zjm1-137],3
17,CCc1nc(N)nc(N)c1-c1ccc(C(F)(F)F)cc1 [vsa5],3
18,CCCc1nc(N)nc(N)c1-c1ccccc1 [ksh3-29],3
19,NCc1nc(N)nc(N)c1-c1ccc(Cl)cc1 [zjm7-27],1

# System: malaria
# Assay: not given
# Conditions: cited from earlier work
row,SMILES,activity against malaria relative to PYR
1,CCc1nc(N)nc(N)c1-c1ccccc1 [ksh3-10],inferior activity against malaria relative to PYR

# Biological target: HexB (Homo sapiens, UniProt P07686)
# Assay: HexB inhibition (purified isozyme)
# Assay type: biochemical
# Conditions: pH 4.5, 1.6 mM substrate, read-out: IC50 HexB pH 4.5
# Method: (§1) Experiments were performed using 1.6 mM 4-methylumbelliferone-b-N-Acetylglucosamine substrate.
# HexB, sequence (P07686 122-311 limits assumed): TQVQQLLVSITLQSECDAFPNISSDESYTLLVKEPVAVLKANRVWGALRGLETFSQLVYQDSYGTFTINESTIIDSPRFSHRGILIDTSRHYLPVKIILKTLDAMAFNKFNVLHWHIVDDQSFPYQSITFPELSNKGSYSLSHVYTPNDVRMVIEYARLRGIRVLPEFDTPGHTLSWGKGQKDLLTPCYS
# HexB, sequence (P07686 315-556 limits assumed): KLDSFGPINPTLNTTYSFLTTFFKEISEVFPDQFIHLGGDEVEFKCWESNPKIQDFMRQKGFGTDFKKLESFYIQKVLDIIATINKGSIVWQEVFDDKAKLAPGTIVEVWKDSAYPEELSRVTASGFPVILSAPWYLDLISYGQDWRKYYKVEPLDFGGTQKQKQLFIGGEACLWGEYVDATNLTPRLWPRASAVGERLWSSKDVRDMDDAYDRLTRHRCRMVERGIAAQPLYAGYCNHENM
row,SMILES,IC50 [µM]
1,CCc1nc(N)nc(N)c1-c1ccccc1 [ksh3-10],38

# Same assay, conditions: pH 7, read-out: IC50 HexB pH 7
row,SMILES,IC50 [µM]
1,CCc1nc(N)nc(N)c1-c1ccccc1 [ksh3-10],15

# Biological target: T1, purified recombinant human DHFR (Homo sapiens, UniProt P00374)
# T1 sequence (P00374 1-187): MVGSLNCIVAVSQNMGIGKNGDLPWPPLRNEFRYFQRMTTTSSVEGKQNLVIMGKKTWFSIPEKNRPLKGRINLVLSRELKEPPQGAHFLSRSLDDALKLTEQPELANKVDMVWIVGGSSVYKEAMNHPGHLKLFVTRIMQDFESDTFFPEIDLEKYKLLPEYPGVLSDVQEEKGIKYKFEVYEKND
# Assay: DHFR inhibition
# Assay type: biochemical
# Conditions: FIG. 13B
row,SMILES,IC50 [µM]
1,CCc1nc(N)nc(N)c1-c1ccccc1 [ksh3-10],0.2

# System: mutant Hex A
# Assay: not given
# Assay type: cell-based, human
# Conditions: 33.33 μg/ml, five days, relative to untreated cells (FIG. 5)
# Method: The cells were harvested and assayed for Hex A using a fluorescent artificial substrate, MUGS. The increase in Hex A activity relative to that of untreated cells is given, i.e. no change in activity=1;
# Cells were grown in the indicated concentrations of either drug for five days. The cells were harvested and assayed for Hex A activity using a fluorescent artificial substrate, MUGS. The increase in Hex A activity relative to that of untreated cells is given, i.e. no change in activity=1.
# Two of the other cultures were un-genotyped infantile Tay-Sachs disease fibroblast cell lines. […] The increase in Hex A activity relative to that of untreated cells is given, i.e., no change in activity=1. The decrease in Hex A activity at high concentrations represents cell toxicity.
row,SMILES,fold increase in Hex A activity [fold]
1,CCc1nc(N)nc(N)c1-c1ccccc1 [ksh3-10],7

# Same assay, conditions: all Tay-Sachs cell lines tested (FIG. 5)
row,SMILES,Hex A rescue response compared with PYR
1,CCc1nc(N)nc(N)c1-c1ccccc1 [ksh3-10],as good or a better than PYR

# System: lysosomal HexA
# Assay: Intracellular hydrolysis of fluorescent GM2 ganglioside derivative in patient cells
# Assay type: cell-based, human
# Conditions: PYRdCl 11 μg/ml vs PYR 33 μg/ml, 10 days
# Method: Prior to evaluation of the GM2 hydrolytic activity of lysosomal HexA, cells were treated with Conduritol b-epoxide (Glucocerebrosidase inhibitor) to limit hydrolysis beyond (GlcCer) loaded with a fluorescent derivative of GM2 ganglioside for 8 hrs. Neutral glycolipids and gangliosides were separated by Folch extraction of the treated cells. Gangliosides and glycolipids were resolved by High Performance Thin Layer Chromatography and visualized by Fluorescence Imaging (Storm Imager, Molecular Devices).
row,SMILES,intracellular hydrolysis of fluorescent GM2 ganglioside derivative
1,CCc1nc(N)nc(N)c1-c1ccccc1 [ksh3-10],greater intracellular hydrolysis

# Biological target: T2, HexA wt (Homo sapiens, UniProt P06865+P07686)
# T2 construct: endogenous in cells; host or cells: normal fibroblasts (HexA isozyme enriched from them)
# Assay: Inhibition of HexA enriched from normal fibroblasts
# Assay type: biochemical
# Conditions: pH 4.5
# Method: as §1
# T2 sequence (P06865 89-529): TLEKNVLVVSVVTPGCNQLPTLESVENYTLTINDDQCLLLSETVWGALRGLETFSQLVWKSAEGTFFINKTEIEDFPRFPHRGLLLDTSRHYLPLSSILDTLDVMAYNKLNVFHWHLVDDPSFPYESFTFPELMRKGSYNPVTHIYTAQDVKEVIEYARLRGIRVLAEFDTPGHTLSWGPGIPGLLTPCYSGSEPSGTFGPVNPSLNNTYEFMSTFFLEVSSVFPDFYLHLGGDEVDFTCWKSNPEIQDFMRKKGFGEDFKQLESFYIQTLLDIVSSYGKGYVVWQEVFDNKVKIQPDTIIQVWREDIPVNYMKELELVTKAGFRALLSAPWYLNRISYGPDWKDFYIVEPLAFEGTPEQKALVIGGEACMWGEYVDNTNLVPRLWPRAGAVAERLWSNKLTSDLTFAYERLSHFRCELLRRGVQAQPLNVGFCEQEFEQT
# T2 sequence (P07686 122-311 limits assumed): as the sequence (P07686 122-311 limits assumed) above
# T2 sequence (P07686 315-556 limits assumed): as the sequence (P07686 315-556 limits assumed) above
row,SMILES,IC50 [µM]
1,CCc1nc(N)nc(N)c1-c1ccccc1 [ksh3-10],27

# Biological target: Hex A (Homo sapiens, UniProt P06865+P07686)
# Assay: Hex A inhibition (IC50 from dose response curves of Hex A residual activity);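 also: remaining Hex A enzyme activity recorded across rising inhibitor doses, with dose response curves run at pH 6.5 and again at pH 4.5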
# Conditions: IC50 (μM ± Err), Hex A inhibition, values determined in Example 3; pH not given
# Hex A, sequence (P06865 89-529): as the sequence (P06865 89-529) above
# Hex A, sequence (P07686 122-311 limits assumed): as the sequence (P07686 122-311 limits assumed) above
# Hex A, sequence (P07686 315-556 limits assumed): as the sequence (P07686 315-556 limits assumed) above
row,SMILES,IC50 [µM]
1,CCc1nc(N)nc(N)c1-c1ccc(F)cc1 [ksh3-17],50 ± 1
2,CCCc1nc(N)nc(N)c1-c1ccc(C(F)(F)F)cc1 [zjm1-141],16 ± 1
3,CCc1nc(N)nc(N)c1-c1ccc(C)cc1 [ksh3-19b],72 ± 2
4,CCc1nc(N)nc(N)c1-c1ccc(C(F)(F)F)cc1 [jts16],18 ± 1
5,CCc1nc(N)nc(N)c1-c1ccsc1 [zjm7-69],55 ± 1
6,CCCc1nc(N)nc(N)c1-c1cc(C)cc(C)c1 [ksh3.33e],24 ± 1
7,CCCc1nc(N)nc(N)c1-c1cccc(C)c1 [ksh3.33d],50 ± 1
8,CCCc1nc(N)nc(N)c1-c1ccc(OC)cc1 [zjm1-139],28 ± 1
9,CCCc1nc(N)nc(N)c1-c1ccc(F)cc1 [ksh3-33a],39 ± 1
10,CCc1nc(N)nc(N)c1-c1ccccc1C [ksh3-19c],44 ± 1
11,CCc1nc(N)nc(N)c1-c1cccs1 [zjm7-67],31 ± 1
12,CCCc1nc(N)nc(N)c1-c1ccc(C)cc1 [zjm1-137],28 ± 1
13,CCCc1nc(N)nc(N)c1-c1ccccc1 [ksh3-29],37 ± 1
14,NCc1nc(N)nc(N)c1-c1ccc(Cl)cc1 [zjm7-27],176 ± 1

# Same assay, conditions: IC50 (μM), without error; pH not stated
row,SMILES,IC50 [µM]
1,CCc1nc(N)nc(N)c1-c1ccc(F)cc1 [ksh3-17],50.4
2,CCCc1nc(N)nc(N)c1-c1ccc(C(F)(F)F)cc1 [zjm1-141],15.9
3,CCc1nc(N)nc(N)c1-c1ccc(C)cc1 [ksh3-19b],72.3
4,CCc1nc(N)nc(N)c1-c1ccc(C(F)(F)F)cc1 [jts16],17.7
5,CCc1nc(N)nc(N)c1-c1ccsc1 [zjm7-69],55
6,CCCc1nc(N)nc(N)c1-c1cc(C)cc(C)c1 [ksh3.33e],24.4
7,CCCc1nc(N)nc(N)c1-c1cccc(C)c1 [ksh3.33d],50.4
8,CCCc1nc(N)nc(N)c1-c1ccc(OC)cc1 [zjm1-139],28.2
9,CCCc1nc(N)nc(N)c1-c1ccc(F)cc1 [ksh3-33a],39.1
10,CCc1nc(N)nc(N)c1-c1cccc(C)c1 [ksh3-19d],34.5
11,CCc1nc(N)nc(N)c1-c1ccccc1C [ksh3-19c],43.7
12,CCc1nc(N)nc(N)c1-c1cccs1 [zjm7-67],30.8
13,CCCc1nc(N)nc(N)c1-c1ccc(C)cc1 [zjm1-137],28.4
14,CCc1nc(N)nc(N)c1-c1ccc(C(F)(F)F)cc1 [vsa5],14.7
15,CCCc1nc(N)nc(N)c1-c1ccccc1 [ksh3-29],36.6
16,NCc1nc(N)nc(N)c1-c1ccc(Cl)cc1 [zjm7-27],176

# Same assay, conditions: read-out: IC50 (μM ± Err); Hex A inhibition, values determined in Example 3; pH not given
row,SMILES,IC50 [µM]
1,CCc1nc(N)nc(N)c1-c1cc(C)cc(C)c1 [ksh3-19e],47 ± 1
2,CCCc1nc(N)nc(N)c1-c1ccc(Cl)cc1 [zjm1-135],18 ± 1
3,CCc1nc(N)nc(N)c1-c1ccccc1 [ksh3-10],32 ± 1
4,CCc1nc(N)nc(N)c1-c1cccc(C)c1 [ksh3-19d],34 ± 1
5,CCc1nc(N)nc(N)c1-c1ccc(C(F)(F)F)cc1 [vsa5],15 ± 1

# Same assay, conditions: read-out: IC50 HexA pH 7; purified HexA, pH 7
row,SMILES,IC50 [µM]
1,CCc1nc(N)nc(N)c1-c1ccccc1 [ksh3-10],11

# Same assay, conditions: without error; pH not stated
row,SMILES,IC50 [µM]
1,CCc1nc(N)nc(N)c1-c1cc(C)cc(C)c1 [ksh3-19e],47.4
2,CCCc1nc(N)nc(N)c1-c1ccc(Cl)cc1 [zjm1-135],17.9
3,CCc1nc(N)nc(N)c1-c1ccccc1 [ksh3-10],32
